Measurements from PubChem BioAssay AID220 (DTP/NCI, 2004).
“And” between values parts separate entries of the source, which are not always exact repeats. Identical values can stand only once. Results filed as inconclusive are left out.

Tested on: CD8F1 mice, subcutaneous mammary adenocarcinoma, T/C%
Experiment: NCI In Vivo Anticancer Drug Screen. Data for tumor model Mammary Adenocarcinoma CD8F1 (subcutaneous) in CD8F1
Conditions: higher = larger tumour
Protocol: The antitumor activity of compounds was measured in mice bearing transplantable tumors. Survival or tumor size were measured and the results are expressed as the measurement made in the treated group (T) divided by the measurement made in the vehicle treated control group (C). The tumor model used in this assay is Mammary Adenocarcinoma CD8F1 (subcutaneous) in CD8F1

[1] = endpoint: median tumor weight change, dose: 125.0 mg/kg/injection, schedule: Q01DX001 (ip), vehicle: saline with Tween-80
[2] = endpoint: median tumor weight change, dose: 250.0 mg/kg/injection, schedule: Q01DX001 (ip), vehicle: saline with Tween-80
[3] = endpoint: median tumor weight change, dose: 500.0 mg/kg/injection, schedule: Q01DX001 (ip), vehicle: saline with Tween-80
[4] = endpoint: median tumor weight change, dose: 250.0 mg/kg/injection, schedule: Q01DX001 (ip), vehicle: Klucel (hydroxypropylcellulose) (HPC)
[5] = endpoint: median tumor weight (est.), dose: 2.0 mg/kg/injection, schedule: Q07DX005 (ip), vehicle: saline
[6] = endpoint: median tumor weight (est.), dose: 4.0 mg/kg/injection, schedule: Q07DX005 (ip), vehicle: saline
[7] = endpoint: median tumor weight (est.), dose: 0.5 mg/kg/injection, schedule: Q07DX005 (ip), vehicle: water
[8] = endpoint: median tumor weight (est.), dose: 1.0 mg/kg/injection, schedule: Q07DX005 (ip), vehicle: water
[9] = endpoint: median tumor weight (est.), dose: 2.0 mg/kg/injection, schedule: Q07DX005 (ip), vehicle: water
[10] = endpoint: median tumor weight (est.), dose: 4.0 mg/kg/injection, schedule: Q07DX005 (ip), vehicle: water

O=C(c1cccnc1)c1cc(-c2ccccn2)c(=O)n2ccccc12
T/C [1]: 182 % of control | T/C [2]: 77 % of control | T/C [3]: 78 % of control | T/C (endpoint: median tumor weight change, dose: 1000.0 mg/kg/injection, schedule: Q01DX001 (ip), vehicle: saline with Tween-80): 56 % of control | T/C (endpoint: median tumor weight change, dose: 2000.0 mg/kg/injection, schedule: Q01DX001 (ip), vehicle: saline with Tween-80): 110 % of control

Cc1cc(=NO)cc(C)n1O
T/C (endpoint: median tumor weight change, dose: 125.0 mg/kg/injection, schedule: Q01DX001 (ip), vehicle: distilled water + alcohol): 52 % of control and 77 % of control | T/C (endpoint: median tumor weight change, dose: 250.0 mg/kg/injection, schedule: Q01DX001 (ip), vehicle: distilled water + alcohol): 78 % of control and 80 % of control | T/C (endpoint: median tumor weight change, dose: 500.0 mg/kg/injection, schedule: Q01DX001 (ip), vehicle: distilled water + alcohol): 69 % of control and 78 % of control

CN(c1ccccc1)P(=O)(N1CC1)N1CC1
T/C (endpoint: mean tumor weight, dose: 12.5 mg/kg/injection, schedule: Q07DX007 (ip), vehicle: saline): 3 % of control

O=c1c(O)c(-c2cc(O)c(O)c(O)c2)oc2cc(O)cc(O)c12
T/C (endpoint: median tumor weight (est.), dose: 12.5 mg/kg/injection, schedule: Q07DX005 (ip), vehicle: other): 85 % of control | T/C (endpoint: median tumor weight (est.), dose: 25.0 mg/kg/injection, schedule: Q07DX005 (ip), vehicle: other): 85 % of control | T/C (endpoint: median tumor weight (est.), dose: 50.0 mg/kg/injection, schedule: Q07DX005 (ip), vehicle: other): 122 % of control | T/C (endpoint: median tumor weight (est.), dose: 100.0 mg/kg/injection, schedule: Q07DX005 (ip), vehicle: other): 70 % of control | T/C (endpoint: median tumor weight (est.), dose: 200.0 mg/kg/injection, schedule: Q07DX005 (ip), vehicle: other): 89 % of control | T/C (endpoint: median tumor weight (est.), dose: 400.0 mg/kg/injection, schedule: Q07DX005 (ip), vehicle: other): 70 % of control | T/C [1]: 61 % of control | T/C [2]: 46 % of control | T/C [3]: 40 % of control

Cc1ccc(C2NC(=S)N3C(c4ccc(C)cc4)NC(=S)N23)cc1 (stereo not drawn)
T/C (endpoint: median tumor weight change, dose: 125.0 mg/kg/injection, schedule: Q01DX001 (ip), vehicle: Klucel (hydroxypropylcellulose) (HPC)): 77 % of control | T/C [4]: 104 % of control | T/C (endpoint: median tumor weight change, dose: 500.0 mg/kg/injection, schedule: Q01DX001 (ip), vehicle: Klucel (hydroxypropylcellulose) (HPC)): 107 % of control | T/C (endpoint: median tumor weight change, dose: 1000.0 mg/kg/injection, schedule: Q01DX001 (ip), vehicle: Klucel (hydroxypropylcellulose) (HPC)): 94 % of control | T/C (endpoint: median tumor weight change, dose: 2000.0 mg/kg/injection, schedule: Q01DX001 (ip), vehicle: Klucel (hydroxypropylcellulose) (HPC)): 68 % of control

c1ccc(CN2CCOC2)cc1
T/C (endpoint: median tumor weight (est.), dose: 12.5 mg/kg/injection, schedule: Q07DX005 (ip), vehicle: suspension in saline): 51 % of control | T/C (endpoint: median tumor weight (est.), dose: 25.0 mg/kg/injection, schedule: Q07DX005 (ip), vehicle: suspension in saline): 43 % of control | T/C (endpoint: median tumor weight (est.), dose: 50.0 mg/kg/injection, schedule: Q07DX005 (ip), vehicle: suspension in saline): 62 % of control | T/C (endpoint: median tumor weight (est.), dose: 100.0 mg/kg/injection, schedule: Q07DX005 (ip), vehicle: suspension in saline): 87 % of control

FC(F)(F)c1nc2nc(Cl)c(Cl)nc2[nH]1
T/C (endpoint: median tumor weight change, dose: 62.5 mg/kg/injection, schedule: Q01DX001 (ip), vehicle: saline with Tween-80): 77 % of control | T/C [1]: 114 % of control | T/C [2]: 74 % of control

CC[C@H]1CN2CCc3cc(OC)c(OC)cc3[C@@H]2C[C@@H]1C[C@H]1NCCc2cc(O)c(OC)cc21
T/C [5]: 67 % of control | T/C [6]: 95 % of control | T/C (endpoint: median tumor weight (est.), dose: 8.0 mg/kg/injection, schedule: Q07DX005 (ip), vehicle: saline): 92 % of control | T/C (endpoint: median tumor weight (est.), dose: 16.0 mg/kg/injection, schedule: Q07DX005 (ip), vehicle: saline): 47 % of control

CN=C(NC#N)NCCSCc1nc[nH]c1C
T/C [4]: 57 % of control

N#CC(OC1OC(COC2OC(CO)C(O)C(O)C2O)C(O)C(O)C1O)c1ccccc1 (stereo not drawn)
T/C (endpoint: median tumor weight (est.), dose: 50.0 mg/kg/injection, schedule: Q07DX005 (ip), vehicle: water): 71 % of control | T/C (endpoint: median tumor weight (est.), dose: 100.0 mg/kg/injection, schedule: Q07DX005 (ip), vehicle: water): 88 % of control | T/C (endpoint: median tumor weight (est.), dose: 200.0 mg/kg/injection, schedule: Q07DX005 (ip), vehicle: water): 112 % of control | T/C (endpoint: median tumor weight (est.), dose: 400.0 mg/kg/injection, schedule: Q07DX005 (ip), vehicle: water): 114 % of control | T/C (endpoint: median tumor weight (est.), dose: 800.0 mg/kg/injection, schedule: Q07DX005 (ip), vehicle: water): 82 % of control

CC[C@@]1(O)C[C@H](OC2CC(N(C)C)C(OC3CC(O)C(OC4CCC(=O)C(C)O4)C(C)O3)C(C)O2)c2c(cc3c(c2O)C(=O)c2c(O)ccc(O)c2C3=O)[C@H]1C(=O)OC (stereo partly drawn)
T/C (endpoint: mean tumor weight, dose: 0.5 mg/kg/injection, schedule: Q07DX006 (ip), vehicle: water): 43 % of control | T/C (endpoint: mean tumor weight, dose: 1.0 mg/kg/injection, schedule: Q07DX006 (ip), vehicle: water): 35 % of control | T/C (endpoint: mean tumor weight, dose: 2.0 mg/kg/injection, schedule: Q07DX006 (ip), vehicle: water): 5 % of control | T/C (endpoint: mean tumor weight, dose: 4.0 mg/kg/injection, schedule: Q07DX006 (ip), vehicle: water): 17 % of control | T/C [7]: 69 % of control and 90 % of control | T/C [8]: 83 % of control | T/C [9]: 37 % of control and 53 % of control | T/C [10]: 8 % of control and 26 % of control | T/C (endpoint: median tumor weight (est.), dose: 8.0 mg/kg/injection, schedule: Q07DX005 (ip), vehicle: water): 1 % of control

CC(=O)OCC1OC(n2ncc(=O)[nH]c2=O)C(OC(C)=O)C1OC(C)=O (stereo not drawn)
T/C (endpoint: median tumor weight change, dose: 125.0 mg/kg/injection, schedule: Q01DX001 (ip), vehicle: saline): 165 % of control | T/C (endpoint: median tumor weight change, dose: 250.0 mg/kg/injection, schedule: Q01DX001 (ip), vehicle: saline): 111 % of control | T/C (endpoint: median tumor weight change, dose: 500.0 mg/kg/injection, schedule: Q01DX001 (ip), vehicle: saline): 162 % of control | T/C (endpoint: median tumor weight change, dose: 1000.0 mg/kg/injection, schedule: Q01DX001 (ip), vehicle: saline): 117 % of control

Cc1ccccc1SSc1ccccc1C
T/C (endpoint: median tumor weight (est.), dose: 50.0 mg/kg/injection, schedule: Q07DX005 (ip), vehicle: saline with Tween-80): 159 % of control | T/C (endpoint: median tumor weight (est.), dose: 100.0 mg/kg/injection, schedule: Q07DX005 (ip), vehicle: saline with Tween-80): 123 % of control | T/C (endpoint: median tumor weight (est.), dose: 200.0 mg/kg/injection, schedule: Q07DX005 (ip), vehicle: saline with Tween-80): 179 % of control

Cc1ccccc1N(CC1CO1)CC1CO1 (stereo not drawn)
T/C (endpoint: median tumor weight (est.), dose: 50.0 mg/kg/injection, schedule: Q07DX005 (ip), vehicle: saline): 74 % of control | T/C (endpoint: median tumor weight (est.), dose: 100.0 mg/kg/injection, schedule: Q07DX005 (ip), vehicle: saline): 79 % of control | T/C (endpoint: median tumor weight (est.), dose: 200.0 mg/kg/injection, schedule: Q07DX005 (ip), vehicle: saline): 105 % of control | T/C (endpoint: median tumor weight (est.), dose: 400.0 mg/kg/injection, schedule: Q07DX005 (ip), vehicle: saline): 63 % of control

CCCCCC1c2cc(O)ccc2OC1N1CCOCC1 (stereo not drawn)
T/C [2]: 204 % of control and 73 % of control

CC(=O)[C@]1(O)Cc2c(O)c3c(c(O)c2[C@@H](OC2CC(N)C(O)C(C)O2)C1)C(=O)c1c(O)cccc1C3=O (stereo partly drawn)
T/C (endpoint: median tumor weight (est.), dose: 0.6 mg/kg/injection, schedule: Q07DX005 (ip), vehicle: water): 96 % of control

CCOC(OCC)C(=O)OCC(=O)[C@]1(O)Cc2c(O)c3c(c(O)c2[C@@H](OC2CC(N)C(O)C(C)O2)C1)C(=O)c1c(OC)cccc1C3=O (stereo partly drawn)
T/C [7]: 166 % of control | T/C (endpoint: median tumor weight (est.), dose: 1.0 mg/kg/injection, schedule: Q07DX005 (ip), vehicle: saline): 85 % of control | T/C [8]: 50 % of control | T/C [5]: 47 % of control | T/C [9]: 74 % of control | T/C [6]: 20 % of control | T/C [10]: 24 % of control

CCN=C=NCCCN(C)C
T/C (endpoint: median tumor weight change, dose: 3.9 mg/kg/injection, schedule: Q01DX001 (ip), vehicle: saline): 115 % of control | T/C (endpoint: median tumor weight change, dose: 7.81 mg/kg/injection, schedule: Q01DX001 (ip), vehicle: saline): 112 % of control | T/C (endpoint: median tumor weight change, dose: 15.63 mg/kg/injection, schedule: Q01DX001 (ip), vehicle: saline): 92 % of control | T/C (endpoint: median tumor weight change, dose: 31.25 mg/kg/injection, schedule: Q01DX001 (ip), vehicle: saline): 109 % of control | T/C (endpoint: median tumor weight change, dose: 62.5 mg/kg/injection, schedule: Q01DX001 (ip), vehicle: saline): 67 % of control

CCc1ccc(C2=C(O)C(=O)C(c3ccc(CC)cc3)=C(O)C2=O)cc1
T/C (endpoint: median tumor weight change, dose: 16.0 mg/kg/injection, schedule: Q01DX001 (ip), vehicle: saline with Tween-80): 88 % of control | T/C (endpoint: median tumor weight change, dose: 31.0 mg/kg/injection, schedule: Q01DX001 (ip), vehicle: saline with Tween-80): 107 % of control | T/C (endpoint: median tumor weight change, dose: 62.0 mg/kg/injection, schedule: Q01DX001 (ip), vehicle: saline with Tween-80): 92 % of control | T/C [1]: 61 % of control
